According to US8188059B2, “Compounds and methods for modulating expression of GCGR” (Isis Pharmaceuticals, Inc., priority 2006, dated 2012):
Strand notation (5' to 3'): a small letter for the sugar, then the base; units joined by * are phosphorothioate-linked, units joined directly phosphodiester-linked; [ ] holds rarer units or linkages, { } end groups; capitals alone tell only the bases. e = 2'-O-(2-methoxyethyl) (MOE); [5mC] = 5-methylcytosine; d = 2'-deoxy (DNA)

Assays:
[1] = system: rat DGAT2 mRNA; test: Dose-dependent inhibition of DGAT2 in A10 cells, 0.62-150 nM (Example 22, Table 83); assay type: cell-based
Experimental: Additional short antisense compounds targeted to DGAT2 mRNA were tested in vitro. A10 cells were prepared as described above and treated with 0.62, 1.85, 5.56, 16.67, 50.0, and 150.0 nM short antisense compounds to determine if DGAT2 inhibition occurs in a dose-dependent manner. DGAT2 mRNA was measured using quantitative real-time PCR, as described herein. […] Results are presented as percent inhibition of rat DGAT2, relative to untreated control cells.

[2] = system: DGAT2 mRNA; test: Antisense inhibition of DGAT2 in A10 cells at 75 nM (Example 22, Table 81); assay type: cell-based, rat; details: approximately 24 hours
Experimental: Short antisense compounds targeted to a DGAT2 nucleic acid were tested for their effects on DGAT2 mRNA in vitro. Cultured A10 cells in a 96-well plate were treated with 75 nM of short antisense compound. After a treatment period of approximately 24 hours, RNA was isolated from the cells and DGAT2 mRNA levels were measured by quantitative real-time PCR, as described herein. DGAT2 mRNA levels were adjusted according to total RNA content as measured by RIBOGREEN®. […]

[3] = system: rat DGAT2 mRNA; test: Dose-dependent inhibition of DGAT2 in A10 cells, 6.25-200 nM (Example 22, Table 82); assay type: cell-based
Experimental: Additional short antisense compounds targeted to DGAT2 mRNA were tested in vitro in a dose-response experiment. A10 cells were prepared as described above and treated with 6.25, 12.5, 25.0, 50.0, 100.0, and 200.0 nM short antisense compounds to determine if DGAT2 inhibition occurs in a dose-dependent manner. […] Results are presented as percent inhibition, relative to untreated control cells.

[4] = system: rat SGLT2 mRNA; test: Rat SGLT2 mRNA levels in kidney, 1-10-1 and 1-10-2 MOE gapmers, Sprague-Dawley rats (Example 13, Table 63); assay type: in vivo
Source text: 1-10-1 and 1-10-2 MOE gapmer antisense compounds, provided in Table 62, were designed to target different regions of the mouse or rat SGLT2 RNA. All short antisense compounds in Table 62 are chimeric oligonucleotides (“gapmers”) either 12 or 13 nucleotides in length, composed of a central “gap” segment consisting of ten 2′-deoxynucleotides, which are flanked on the 5′ side by a one-nucleoside “wing” and on the 3′ side by a two or one-nucleotide “wing”. […] All cytidine residues are 5-methylcytidines.
The short antisense compounds were analyzed for their effect on rat SGLT2 mRNA levels. Data are ranges taken from three experiments in which Male Sprague-Dawley rats (170-200 g) were dosed twice per week for three weeks with 450, 150 or 50 nmol/kg of either a 1-10-1 or 1-10-2 MOE gapmer given by intraperitoneal injection. Rats were sacrificed 48 hours following last administration and evaluated for SGLT2 mRNA levels in kidney. Target levels were determined by RT, real-time PCR as described by other examples herein. PCR results were normalized to an internal ISIS control.

[5] = 50 nmol/kg i.p. twice per week for three weeks
[6] = 150 nmol/kg i.p. twice per week for three weeks
[7] = 450 nmol/kg i.p. twice per week for three weeks

372602 (antisense e[5mC]*e[5mC]*dA*dG*dG*d[5mC]*dA*dT*dG*dG*dA*dG*e[5mC]*eT) [compound 372602]
percent inhibition of rat DGAT2 ([1]; 0.62 nM): 0 | percent inhibition of rat DGAT2 ([1]; 1.85 nM): 0 | percent inhibition of rat DGAT2 ([1]; 5.56 nM): 10 | percent inhibition of rat DGAT2 ([1]; 16.67 nM): 0 | percent inhibition of rat DGAT2 ([1]; 50 nM): 19 | percent inhibition of rat DGAT2 ([1]; 150 nM): 51 | DGAT2 mRNA, % Control [2]: 39% | percent inhibition of DGAT2 ([3]; 6.25 nM): 0 | percent inhibition of DGAT2 ([3]; 12.5 nM): 0 | percent inhibition of DGAT2 ([3]; 50.0 nM): 18 | percent inhibition of DGAT2 ([3]; 100.0 nM): 47 | percent inhibition of DGAT2 ([3]; 200.0 nM): 76 | percent inhibition of DGAT2 ([3]; […]): 0

ISIS 382677: SGLT2; GGCATGAGCTTCA 1-10-2 MOE (antisense eG*dG*d[5mC]*dA*dT*dG*dA*dG*d[5mC]*dT*dT*e[5mC]*eA)
% change in SGLT2 expression relative to saline [4, 5]: −40% | % change in SGLT2 expression relative to saline [4, 6]: −60% | % change in SGLT2 expression relative to saline [4, 7]: −75%

372586 (antisense eG*eT*dT*d[5mC]*d[5mC]*dT*dG*dG*dT*dG*dG*dT*e[5mC]*eA) [compound 372586]
percent inhibition of rat DGAT2 ([1]; 0.62 nM): 0 | percent inhibition of rat DGAT2 ([1]; 1.85 nM): 0 | percent inhibition of rat DGAT2 ([1]; 5.56 nM): 0 | percent inhibition of rat DGAT2 ([1]; 16.67 nM): 0 | percent inhibition of rat DGAT2 ([1]; 50 nM): 7 | percent inhibition of rat DGAT2 ([1]; 150 nM): 55 | DGAT2 mRNA, % Control [2]: 40% | percent inhibition of DGAT2 ([3]; 6.25 nM): 19 | percent inhibition of DGAT2 ([3]; 12.5 nM): 0 | percent inhibition of DGAT2 ([3]; 50.0 nM): 22 | percent inhibition of DGAT2 ([3]; 100.0 nM): 45 | percent inhibition of DGAT2 ([3]; 200.0 nM): 77 | percent inhibition of DGAT2 ([3]; […]): 7

372618 (antisense eG*eT*dG*dG*dT*dA*d[5mC]*dA*dG*dG*dT*d[5mC]*eG*eA) [compound 372618]
percent inhibition of rat DGAT2 ([1]; 0.62 nM): 0 | percent inhibition of rat DGAT2 ([1]; 1.85 nM): 0 | percent inhibition of rat DGAT2 ([1]; 5.56 nM): 0 | percent inhibition of rat DGAT2 ([1]; 16.67 nM): 0 | percent inhibition of rat DGAT2 ([1]; 50 nM): 30 | percent inhibition of rat DGAT2 ([1]; 150 nM): 60 | DGAT2 mRNA, % Control [2]: 29% | percent inhibition of DGAT2 ([3]; 6.25 nM): 0 | percent inhibition of DGAT2 ([3]; 12.5 nM): 5 | percent inhibition of DGAT2 ([3]; 50.0 nM): 27 | percent inhibition of DGAT2 ([3]; 100.0 nM): 65 | percent inhibition of DGAT2 ([3]; 200.0 nM): 80 | percent inhibition of DGAT2 ([3]; […]): 0

372546 (antisense eT*eT*eG*dG*dT*d[5mC]*dT*dT*dG*dT*dG*dA*dT*eT*eG*eT) [compound 372546]
percent inhibition of rat DGAT2 ([1]; 0.62 nM): 0 | percent inhibition of rat DGAT2 ([1]; 1.85 nM): 2 | percent inhibition of rat DGAT2 ([1]; 5.56 nM): 11 | percent inhibition of rat DGAT2 ([1]; 16.67 nM): 4 | percent inhibition of rat DGAT2 ([1]; 50 nM): 48 | percent inhibition of rat DGAT2 ([1]; 150 nM): 78 | DGAT2 mRNA, % Control [2]: 34%

372503 (antisense eG*e[5mC]*eA*dG*dG*dT*dT*dG*dT*dG*dT*dG*dT*e[5mC]*eT*eT) [compound 372503]
percent inhibition of rat DGAT2 ([1]; 0.62 nM): 7 | percent inhibition of rat DGAT2 ([1]; 1.85 nM): 10 | percent inhibition of rat DGAT2 ([1]; 5.56 nM): 4 | percent inhibition of rat DGAT2 ([1]; 16.67 nM): 25 | percent inhibition of rat DGAT2 ([1]; 50 nM): 54 | percent inhibition of rat DGAT2 ([1]; 150 nM): 80 | DGAT2 mRNA, % Control [2]: 35%

372580 (antisense eG*eG*dT*dT*dG*dT*dG*dT*dG*dT*d[5mC]*dT*eT*e[5mC]) [compound 372580]
percent inhibition of rat DGAT2 ([1]; 0.62 nM): 0 | percent inhibition of rat DGAT2 ([1]; 1.85 nM): 5 | percent inhibition of rat DGAT2 ([1]; 5.56 nM): 5 | percent inhibition of rat DGAT2 ([1]; 16.67 nM): 3 | percent inhibition of rat DGAT2 ([1]; 50 nM): 16 | percent inhibition of rat DGAT2 ([1]; 150 nM): 42 | DGAT2 mRNA, % Control [2]: 48%

372594 (antisense eA*e[5mC]*dA*dG*dA*dA*dG*dG*d[5mC]*dA*d[5mC]*d[5mC]*e[5mC]*eA) [compound 372594]
percent inhibition of rat DGAT2 ([1]; 0.62 nM): 0 | percent inhibition of rat DGAT2 ([1]; 1.85 nM): 0 | percent inhibition of rat DGAT2 ([1]; 5.56 nM): 0 | percent inhibition of rat DGAT2 ([1]; 16.67 nM): 0 | percent inhibition of rat DGAT2 ([1]; 50 nM): 2 | percent inhibition of rat DGAT2 ([1]; 150 nM): 15 | DGAT2 mRNA, % Control [2]: 77%

ISIS 382675 (antisense eT*dA*dG*d[5mC]*d[5mC]*dA*d[5mC]*d[5mC]*dA*dA*d[5mC]*eT*eG)
% change in SGLT2 expression relative to saline [4, 5]: −50% | % change in SGLT2 expression relative to saline [4, 6]: −65% | % change in SGLT2 expression relative to saline [4, 7]: −80%

372530 (antisense eT*e[5mC]*eG*dG*d[5mC]*d[5mC]*d[5mC]*d[5mC]*dA*dG*dG*dA*dG*e[5mC]*e[5mC]*e[5mC]) [compound 372530]
percent inhibition of rat DGAT2 ([1]; 0.62 nM): 0 | percent inhibition of rat DGAT2 ([1]; 1.85 nM): 2 | percent inhibition of rat DGAT2 ([1]; 5.56 nM): 0 | percent inhibition of rat DGAT2 ([1]; 16.67 nM): 10 | percent inhibition of rat DGAT2 ([1]; 50 nM): 38 | percent inhibition of rat DGAT2 ([1]; 150 nM): 78 | DGAT2 mRNA, % Control [2]: 35%

372501 (antisense eT*eT*eG*dT*dG*dT*dG*dT*d[5mC]*dT*dT*d[5mC]*dA*e[5mC]*e[5mC]*eA) [compound 372501]
percent inhibition of rat DGAT2 ([1]; 0.62 nM): 1 | percent inhibition of rat DGAT2 ([1]; 1.85 nM): 5 | percent inhibition of rat DGAT2 ([1]; 5.56 nM): 10 | percent inhibition of rat DGAT2 ([1]; 16.67 nM): 11 | percent inhibition of rat DGAT2 ([1]; 50 nM): 25 | percent inhibition of rat DGAT2 ([1]; 150 nM): 68 | DGAT2 mRNA, % Control [2]: 28%

372516 (antisense eT*eA*e[5mC]*dA*dG*dA*dA*dG*dG*d[5mC]*dA*d[5mC]*d[5mC]*e[5mC]*eA*eG) [compound 372516]
percent inhibition of rat DGAT2 ([1]; 0.62 nM): 1 | percent inhibition of rat DGAT2 ([1]; 1.85 nM): 10 | percent inhibition of rat DGAT2 ([1]; 5.56 nM): 0 | percent inhibition of rat DGAT2 ([1]; 16.67 nM): 4 | percent inhibition of rat DGAT2 ([1]; 50 nM): 35 | percent inhibition of rat DGAT2 ([1]; 150 nM): 81 | DGAT2 mRNA, % Control [2]: 27%

372578 (antisense eT*eG*dT*dG*dT*d[5mC]*dT*dT*d[5mC]*dA*d[5mC]*d[5mC]*eA*eG) [compound 372578]
percent inhibition of rat DGAT2 ([1]; 0.62 nM): 0 | percent inhibition of rat DGAT2 ([1]; 1.85 nM): 0 | percent inhibition of rat DGAT2 ([1]; 5.56 nM): 0 | percent inhibition of rat DGAT2 ([1]; 16.67 nM): 2 | percent inhibition of rat DGAT2 ([1]; 50 nM): 7 | percent inhibition of rat DGAT2 ([1]; 150 nM): 42 | DGAT2 mRNA, % Control [2]: 59%
